In general, IC50 refers to the concentration needed to halve the response being measured.

For one assay, the target named is T1, human V1a receptor (Homo sapiens, UniProt P37288).
T1 construct: expressed in transfected cells; host or cells: CHO K1 (ATCC), also stably transfected with a modified aequorin
Nature of the assay: Cellular in vitro assay for determining vasopressin receptor activity, V1a receptor cell line (CHO, aequorin luminescence). The class given is cell-based. Conditions: for IC50: CHO cell line transfected with human V1a receptor, [Arg]-vasopressin at EC50 concentration, read-out: IC50 hV1a; for ratio IC50 hV2/hV1a: selectivity ratio IC50 hV2 / IC50 hV1a. The gist of the method:
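Antagonism is measured in stable CHO K1 transfectants coexpressing the Gαq-coupled receptor and a calcium-sensitive aequorin photoprotein. Agonist challenge uses [Arg]-vasopressin at EC50 after a 10-minute compound exposure; IC50 values come from the luminescence signal.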

A further assay concerns the target T2, human V2 receptor (Homo sapiens, UniProt P30518).
T2 construct: expressed in transfected cells; host or cells: CHO K1 (ATCC) expressing firefly luciferase under a CRE-responsive promoter
Nature of the assay: Cellular in vitro assay for determining vasopressin receptor activity, V2 receptor cell line (CHO, CRE-luciferase). Type of assay: cell-based. The conditions noted are these: CHO cell line transfected with human V2 receptor; [Arg8]-vasopressin at EC50 concentration; read-out: IC50 hV2.

T2 sequence (P30518 whole entry): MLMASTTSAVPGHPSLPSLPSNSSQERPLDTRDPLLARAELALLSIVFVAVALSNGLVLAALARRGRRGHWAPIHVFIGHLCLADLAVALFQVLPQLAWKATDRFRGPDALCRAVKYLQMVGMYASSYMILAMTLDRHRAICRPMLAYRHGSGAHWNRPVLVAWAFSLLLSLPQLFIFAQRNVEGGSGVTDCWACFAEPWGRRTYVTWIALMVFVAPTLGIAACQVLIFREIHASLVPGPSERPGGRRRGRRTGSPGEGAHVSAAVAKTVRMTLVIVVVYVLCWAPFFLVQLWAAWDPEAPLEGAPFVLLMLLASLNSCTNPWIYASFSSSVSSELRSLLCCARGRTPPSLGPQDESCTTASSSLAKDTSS
T1 sequence (P37288 whole entry): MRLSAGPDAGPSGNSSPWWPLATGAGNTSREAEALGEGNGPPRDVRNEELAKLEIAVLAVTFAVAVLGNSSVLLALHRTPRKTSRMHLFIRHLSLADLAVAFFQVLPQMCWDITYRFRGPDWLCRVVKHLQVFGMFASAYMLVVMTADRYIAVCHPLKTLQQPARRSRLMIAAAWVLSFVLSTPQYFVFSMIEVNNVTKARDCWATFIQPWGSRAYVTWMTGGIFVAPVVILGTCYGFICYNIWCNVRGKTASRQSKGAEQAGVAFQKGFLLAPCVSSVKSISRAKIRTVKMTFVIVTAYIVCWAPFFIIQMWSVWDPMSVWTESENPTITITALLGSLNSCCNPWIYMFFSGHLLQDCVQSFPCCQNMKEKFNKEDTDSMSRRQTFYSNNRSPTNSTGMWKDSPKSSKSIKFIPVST

For `CC1(NC(=O)c2ncccc2-n2cnc(Cn3nc(-c4ccc(Cl)cc4)n(C[C@@H](O)C(F)(F)F)c3=O)n2)CC1` [Example 483, 3-[3-({3-(4-Chlorophenyl)-5-oxo-4-[(2R)-3,3,3-trifluoro-2-hydroxypropyl]-4,5-dihydro-1H-1,2,4-triazol-1-yl}methyl)-1H-1,2,4-triazol-1-yl]-N-(1-methylcyclopropyl)pyridine-2-carboxamide], on human V1a receptor, the concentration for half-maximal inhibition (IC50) came out at 37 nM and the “ratio IC50 hV2/hV1a” value was 106.8. In addition, on human V2 receptor, the half-maximal inhibitory concentration (IC50) is 3950 nM.

Turning to `NC(=O)[C@H]1CC(F)(F)CN1C(=O)c1ncccc1-n1cnc(Cn2nc(-c3ccc(Cl)cc3)n(C[C@@H](O)C(F)(F)F)c2=O)n1` [Example 486, 1-({3-[3-({3-(4-Chlorophenyl)-5-oxo-4-[(2R)-3,3,3-trifluoro-2-hydroxypropyl]-4,5-dihydro-1H-1,2,4-triazol-1-yl}methyl)-1H-1,2,4-triazol-1-yl]pyridin-2-yl}carbonyl)-4,4-difluoro-D-prolinamide], on human V1a receptor, the IC50 was 110 nM and the “ratio IC50 hV2/hV1a” value is 290.9. In addition, the IC50 on human V2 receptor turned out to be 32000 nM.

Turning to `O=C(NC1CC1)c1ccncc1-n1cnc(Cn2nc(-c3ccc(Cl)cc3)n(C[C@H](O)C(F)(F)F)c2=O)n1` [Example 488, 3-[3-({3-(4-chlorophenyl)-5-oxo-4-[(2S)-3,3,3-trifluoro-2-hydroxypropyl]-4,5-dihydro-1H-1,2,4-triazol-1-yl}methyl)-1H-1,2,4-triazol-1-yl]-N-cyclopropylpyridine-4-carboxamide], at human V1a receptor, the IC50 stood at 29 nM and the “ratio IC50 hV2/hV1a” value is on record as 69.0. On human V2 receptor, the IC50 came out at 2000 nM.

Turning to `O=C(NCC(F)(F)F)c1ccncc1-n1cnc(Cn2nc(-c3ccc(Cl)cc3)n(C[C@H](O)C(F)(F)F)c2=O)n1` [Example 489, 3-[3-({3-(4-chlorophenyl)-5-oxo-4-[(2S)-3,3,3-trifluoro-2-hydroxypropyl]-4,5-dihydro-1H-1,2,4-triazol-1-yl}methyl)-1H-1,2,4-triazol-1-yl]-N-(2,2,2-trifluoroethyl)pyridine-4-carboxamide], the IC50 on human V1a receptor is 50 nM; on human V2 receptor, 1700 nM. Besides, on human V1a receptor, the “ratio IC50 hV2/hV1a” value was determined as 34.0.

Consider `O=C(N[C@@H]1C[C@@H]1F)c1ccncc1-n1cnc(Cn2nc(-c3ccc(Cl)cc3)n(C[C@H](O)C(F)(F)F)c2=O)n1` [Example 490, 3-[3-({3-(4-Chlorophenyl)-5-oxo-4-[(2S)-3,3,3-trifluoro-2-hydroxypropyl]-4,5-dihydro-1H-1,2,4-triazol-1-yl}methyl)-1H-1,2,4-triazol-1-yl]-N-[(1R,2S)-2-fluorocyclopropyl]pyridine-4-carboxamide], for which, on human V1a receptor, the half-maximal inhibitory concentration (IC50) amounted to 16 nM and the “ratio IC50 hV2/hV1a” value came out at 23.8. Besides, at human V2 receptor, the concentration for half-maximal inhibition (IC50) was found to be 380 nM.

For the compound `O=C(NCCC(F)(F)F)c1ccncc1-n1cnc(Cn2nc(-c3ccc(Cl)cc3)n(C[C@H](O)C(F)(F)F)c2=O)n1` [Example 491, 3-[3-({3-(4-Chlorophenyl)-5-oxo-4-[(2S)-3,3,3-trifluoro-2-hydroxypropyl]-4,5-dihydro-1H-1,2,4-triazol-1-yl}methyl)-1H-1,2,4-triazol-1-yl]-N-(3,3,3-trifluoropropyl)pyridine-4-carboxamide], on human V1a receptor, the IC50 is 21 nM and the “ratio IC50 hV2/hV1a” value turned out to be 61.9. The 50% inhibitory concentration (IC50) on human V2 receptor turned out to be 1300 nM.

For the compound `CC1(NC(=O)c2ccncc2-n2cnc(Cn3nc(-c4ccc(Cl)cc4)n(C[C@H](O)C(F)(F)F)c3=O)n2)CC1` [Example 492, 3-[3-({3-(4-Chlorophenyl)-5-oxo-4-[(2S)-3,3,3-trifluoro-2-hydroxypropyl]-4,5-dihydro-1H-1,2,4-triazol-1-yl}methyl)-1H-1,2,4-triazol-1-yl]-N-(1-methylcyclopropyl)pyridine-4-carboxamide], the IC50 is 1.8 nM on human V1a receptor and 440 nM at human V2 receptor. In addition, the “ratio IC50 hV2/hV1a” value at human V1a receptor came out at 244.4.

As for `O=C(NCC(F)(F)F)c1cccnc1-n1cnc(Cn2nc(-c3ccc(Cl)cc3)n(C[C@H](O)C(F)(F)F)c2=O)n1` [Example 494, 2-[3-({3-(4-chlorophenyl)-5-oxo-4-[(2S)-3,3,3-trifluoro-2-hydroxypropyl]-4,5-dihydro-1H-1,2,4-triazol-1-yl}methyl)-1H-1,2,4-triazol-1-yl]-N-(2,2,2-trifluoroethyl)pyridine-3-carboxamide], on human V1a receptor, the concentration for half-maximal inhibition (IC50) is 24.5 nM and the “ratio IC50 hV2/hV1a” value came to 5.3. On human V2 receptor, the IC50 came to 130 nM.

In the case of `CNC(=O)c1cccnc1-n1cnc(Cn2nc(-c3ccc(Cl)cc3)n(C[C@H](O)C(F)(F)F)c2=O)n1` [Example 495, 2-[3-({3-(4-chlorophenyl)-5-oxo-4-[(2S)-3,3,3-trifluoro-2-hydroxypropyl]-4,5-dihydro-1H-1,2,4-triazol-1-yl}methyl)-1H-1,2,4-triazol-1-yl]-N-methylpyridine-3-carboxamide], on human V1a receptor, the IC50 amounted to 20 nM and the “ratio IC50 hV2/hV1a” value was determined as 26.0. Besides, the IC50 at human V2 receptor amounted to 520 nM.

For the compound `O=C(NC1CC1)c1cccnc1-n1cnc(Cn2nc(-c3ccc(Cl)cc3)n(C[C@H](O)C(F)(F)F)c2=O)n1` [Example 496, 2-[3-({3-(4-chlorophenyl)-5-oxo-4-[(2S)-3,3,3-trifluoro-2-hydroxypropyl]-4,5-dihydro-1H-1,2,4-triazol-1-yl}methyl)-1H-1,2,4-triazol-1-yl]-N-cyclopropylpyridine-3-carboxamide], on human V1a receptor, the IC50 is 7.2 nM and the “ratio IC50 hV2/hV1a” value came out at 23.6. Further, the IC50 on human V2 receptor turned out to be 170 nM.

With `O=C(NCCC(F)(F)F)c1cccnc1-n1cnc(Cn2nc(-c3ccc(Cl)cc3)n(C[C@H](O)C(F)(F)F)c2=O)n1` [Example 497, 2-[3-({3-(4-chlorophenyl)-5-oxo-4-[(2S)-3,3,3-trifluoro-2-hydroxypropyl]-4,5-dihydro-1H-1,2,4-triazol-1-yl}methyl)-1H-1,2,4-triazol-1-yl]-N-(3,3,3-trifluoropropyl)pyridine-3-carboxamide], on human V1a receptor, the half-maximal inhibitory concentration (IC50) is 26.5 nM and the “ratio IC50 hV2/hV1a” value is 18.5. Further, on human V2 receptor, the IC50 turned out to be 490 nM.

With `O=C(NC1CC(F)(F)C1)c1cccnc1-n1cnc(Cn2nc(-c3ccc(Cl)cc3)n(C[C@H](O)C(F)(F)F)c2=O)n1` [Example 498, 2-[3-({3-(4-Chlorophenyl)-5-oxo-4-[(2S)-3,3,3-trifluoro-2-hydroxypropyl]-4,5-dihydro-1H-1,2,4-triazol-1-yl}methyl)-1H-1,2,4-triazol-1-yl]-N-(3,3-difluorocyclobutyl)pyridine-3-carboxamide], at human V1a receptor, the concentration for half-maximal inhibition (IC50) was found to be 10.5 nM and the “ratio IC50 hV2/hV1a” value is 44.8. Besides, the IC50 on human V2 receptor is 470 nM.

As to `O=C(NCC1CC1)c1cccnc1-n1cnc(Cn2nc(-c3ccc(Cl)cc3)n(C[C@H](O)C(F)(F)F)c2=O)n1` [Example 499, 2-[3-({3-(4-Chlorophenyl)-5-oxo-4-[(2S)-3,3,3-trifluoro-2-hydroxypropyl]-4,5-dihydro-1H-1,2,4-triazol-1-yl}methyl)-1H-1,2,4-triazol-1-yl]-N-(cyclopropylmethyl)pyridine-3-carboxamide], on human V1a receptor, the IC50 was 15 nM and the “ratio IC50 hV2/hV1a” value is 33.7. Besides, the IC50 on human V2 receptor came to 505 nM.

With `O=C(NC1CC1(F)F)c1cccnc1-n1cnc(Cn2nc(-c3ccc(Cl)cc3)n(C[C@H](O)C(F)(F)F)c2=O)n1` (stereo partly drawn) [Example 500, 2-[3-({3-(4-Chlorophenyl)-5-oxo-4-[(2S)-3,3,3-trifluoro-2-hydroxypropyl]-4,5-dihydro-1H-1,2,4-triazol-1-yl}methyl)-1H-1,2,4-triazol-1-yl]-N-(2,2-difluorocyclopropyl)pyridine-3-carboxamide], at human V1a receptor, the IC50 was 6.8 nM and the “ratio IC50 hV2/hV1a” value is recorded as 44.9. The IC50 at human V2 receptor is 305 nM.

`COC[C@H]1CCCN1C(=O)c1cccnc1-n1cnc(Cn2nc(-c3ccc(Cl)cc3)n(C[C@H](O)C(F)(F)F)c2=O)n1` [Example 501, 5-(4-Chlorophenyl)-2-{[1-(3-{[(2R)-2-(methoxymethyl)pyrrolidin-1-yl]carbonyl}pyridin-2-yl)-1H-1,2,4-triazol-3-yl]methyl}-4-[(2S)-3,3,3-trifluoro-2-hydroxypropyl]-2,4-dihydro-3H-1,2,4-triazol-3-one]: on human V1a receptor, the IC50 was 30.5 nM and the “ratio IC50 hV2/hV1a” value is given as 17.4. In addition, the IC50 on human V2 receptor worked out at 530 nM.

Take `COC[C@@H]1CCCN1C(=O)c1cccnc1-n1cnc(Cn2nc(-c3ccc(Cl)cc3)n(C[C@H](O)C(F)(F)F)c2=O)n1` [Example 502, 5-(4-Chlorophenyl)-2-{[1-(3-{[(2S)-2-(methoxymethyl)pyrrolidin-1-yl]carbonyl}pyridin-2-yl)-1H-1,2,4-triazol-3-yl]methyl}-4-[(2S)-3,3,3-trifluoro-2-hydroxypropyl]-2,4-dihydro-3H-1,2,4-triazol-3-one]: on human V1a receptor, the concentration for half-maximal inhibition (IC50) came out at 29.5 nM and the “ratio IC50 hV2/hV1a” value worked out at 67.8. In addition, the IC50 on human V2 receptor came to 2000 nM.

As for `CC1(NC(=O)c2cccnc2-n2cnc(Cn3nc(-c4ccc(Cl)cc4)n(C[C@H](O)C(F)(F)F)c3=O)n2)CC1` [Example 505, 2-[3-({3-(4-Chlorophenyl)-5-oxo-4-[(2S)-3,3,3-trifluoro-2-hydroxypropyl]-4,5-dihydro-1H-1,2,4-triazol-1-yl}methyl)-1H-1,2,4-triazol-1-yl]-N-(1-methylcyclopropyl)pyridine-3-carboxamide], at human V1a receptor, the IC50 was 1.05 nM and the “ratio IC50 hV2/hV1a” value is given as 52.6. In addition, the IC50 at human V2 receptor amounted to 55 nM.

For the compound `N#CC1(NC(=O)c2cccnc2-n2cnc(Cn3nc(-c4ccc(Cl)cc4)n(C[C@H](O)C(F)(F)F)c3=O)n2)CC1` [Example 506, 2-[3-({3-(4-Chlorophenyl)-5-oxo-4-[(2S)-3,3,3-trifluoro-2-hydroxypropyl]-4,5-dihydro-1H-1,2,4-triazol-1-yl}methyl)-1H-1,2,4-triazol-1-yl]-N-(1-cyanocyclopropyl)pyridine-3-carboxamide], at human V1a receptor, the IC50 stood at 14 nM and the “ratio IC50 hV2/hV1a” value came to 64.6. The IC50 at human V2 receptor amounted to 905 nM.

The values above are taken from patent US11173151B2, “Substituted triazole derivatives and uses thereof” (BAYER AKTIENGESELLSCHAFT, priority 2017, dated 2021).
